Test results from patent publication US20230348418A1, “ISOINDOLINONE COMPOUNDS” (Monte Rosa Therapeutics, Inc., priority 2021, published 2023).

target: CRBN-DDB1 (Homo sapiens, UniProt Q96SW2); experiment: HTRF binding of compounds to CRBN; conditions: not given
Description: Compound activity was monitored in a Homogenous Time-Resolved Fluorescence (HTRF) assay using 1-[5-({2-[2-(2-{[2-(2,6-dioxopiperidin-3-yl)-1,3-dioxo-2,3-dihydro-1H-isoindol-4-yl]oxy}acetamido)ethoxy]ethyl}carbamoyl)pentyl]-3,3-dimethyl-2-[(1E,3E)-5-[(2E)-1,3,3-trimethyl-5-sulfo-2,3-dihydro-1H-indol-2-ylidene]penta-1,3-dien-1-yl]-3H-indol-1-ium-5-sulfonate as a fluorescent probe. […] Compounds were stored in dry, ambient temperatures at 10 mM. A 10-point, 1:3 dilution series was prepared from 10 mM stock concentrations in Echo-compatible LDV plates. 10 nL of each compound dilution series was dispensed into assays wells using an Echo 650 (Labcyte inc. USA). […] The assay was then allowed to incubate for 30 min at ambient temperature after transferring compound. […] Analysis and IC50 values were derived using KNIME analytics (KNIME Zurich) transformation and fitting within Collaborative Drug Discovery (Collaborative Drug Discovery USA). Ki was derived from the geometric mean of the IC50 values using the Cheng-Prustoff transformation.

Sequence of CRBN-DDB1 (Q96SW2 whole entry): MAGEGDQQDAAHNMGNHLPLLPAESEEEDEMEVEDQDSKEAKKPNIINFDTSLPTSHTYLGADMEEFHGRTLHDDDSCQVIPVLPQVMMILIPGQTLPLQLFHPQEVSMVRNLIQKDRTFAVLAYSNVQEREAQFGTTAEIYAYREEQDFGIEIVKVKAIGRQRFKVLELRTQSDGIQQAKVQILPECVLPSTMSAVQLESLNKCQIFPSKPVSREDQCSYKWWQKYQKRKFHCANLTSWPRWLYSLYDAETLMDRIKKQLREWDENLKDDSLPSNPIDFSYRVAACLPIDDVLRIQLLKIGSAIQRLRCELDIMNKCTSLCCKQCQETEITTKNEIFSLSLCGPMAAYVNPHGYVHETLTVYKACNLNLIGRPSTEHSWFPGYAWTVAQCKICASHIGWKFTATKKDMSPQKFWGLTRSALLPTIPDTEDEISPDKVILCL
Sequence of CRBN-DDB1 (Q16531 whole entry partner): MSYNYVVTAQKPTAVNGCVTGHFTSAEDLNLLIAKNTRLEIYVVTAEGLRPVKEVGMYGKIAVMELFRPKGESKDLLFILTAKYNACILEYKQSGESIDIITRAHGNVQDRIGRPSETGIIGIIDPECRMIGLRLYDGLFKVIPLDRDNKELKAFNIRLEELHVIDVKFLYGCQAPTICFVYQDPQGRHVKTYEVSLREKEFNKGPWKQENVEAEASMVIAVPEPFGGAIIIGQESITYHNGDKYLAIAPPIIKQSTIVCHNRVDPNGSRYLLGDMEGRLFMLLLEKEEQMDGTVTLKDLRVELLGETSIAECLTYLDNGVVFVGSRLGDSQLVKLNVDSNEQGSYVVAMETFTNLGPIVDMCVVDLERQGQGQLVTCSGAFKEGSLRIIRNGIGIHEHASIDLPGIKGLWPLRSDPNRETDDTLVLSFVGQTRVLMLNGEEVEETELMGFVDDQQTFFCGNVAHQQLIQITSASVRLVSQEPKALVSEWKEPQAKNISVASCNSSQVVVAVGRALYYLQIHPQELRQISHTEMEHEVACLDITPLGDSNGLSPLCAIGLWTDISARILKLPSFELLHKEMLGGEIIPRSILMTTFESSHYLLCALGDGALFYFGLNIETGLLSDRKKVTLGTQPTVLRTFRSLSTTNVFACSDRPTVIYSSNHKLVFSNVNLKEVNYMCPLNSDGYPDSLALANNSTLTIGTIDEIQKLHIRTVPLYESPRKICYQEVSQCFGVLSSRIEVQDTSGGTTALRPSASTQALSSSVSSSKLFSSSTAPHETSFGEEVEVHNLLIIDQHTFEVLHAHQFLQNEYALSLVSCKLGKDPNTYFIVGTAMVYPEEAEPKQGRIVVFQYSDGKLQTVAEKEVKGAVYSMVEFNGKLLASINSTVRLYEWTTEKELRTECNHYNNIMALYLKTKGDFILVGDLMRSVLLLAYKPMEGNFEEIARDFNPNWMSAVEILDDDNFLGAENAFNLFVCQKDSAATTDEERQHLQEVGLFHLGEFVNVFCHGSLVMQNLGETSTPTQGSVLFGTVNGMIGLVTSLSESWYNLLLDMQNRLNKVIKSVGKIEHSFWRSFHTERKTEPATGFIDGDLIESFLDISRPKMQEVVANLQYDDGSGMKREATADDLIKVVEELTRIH

SMILES | IC50 [nM]
Cc1cc(F)c(NC(=O)OCc2ccc3c(c2)C(=O)N(C2CCC(=O)NC2=O)C3)cc1C(F)(F)F (stereo not drawn) [Compound 233] | 100 to 1000
Cc1cc(NC(=O)OCc2ccc3c(c2)C(=O)N(C2CCC(=O)NC2=O)C3)cc(C#N)c1C (stereo not drawn) [Compound 186] | 100 to 1000
O=C1CCC(N2Cc3ccc(COC(=O)NC4CN(Cc5ccccc5)C4)cc3C2=O)C(=O)N1 (stereo not drawn) [Compound 168] | 100 to 1000
O=C1CCC(N2Cc3ccc(COC(=O)Nc4ccc(C(O)C(F)(F)F)nc4)cc3C2=O)C(=O)N1 (stereo not drawn) [Compound 238] | 100 to 1000
Cc1cc(NC(=O)OCc2ccc3c(c2)C(=O)N(C2CCC(=O)NC2=O)C3)cc(Cl)c1C#N (stereo not drawn) [Compound 177, (2-(2,6-dioxopiperidin-3-yl)-3-oxoisoindolin-5-yl)methyl(3-chloro-4-cyano-5-methylphenyl)carbamate] | 100 to 1000
CC(F)(F)c1ccc(F)c(NC(=O)OCc2ccc3c(c2)C(=O)N(C2CCC(=O)NC2=O)C3)c1 (stereo not drawn) [Compound 234] | < 100
O=C1CCC(N2Cc3ccc(COC(=O)Nc4cccc(OC(F)(F)F)c4F)cc3C2=O)C(=O)N1 (stereo not drawn) [Compound 169] | 100 to 1000
CCOc1cc(NC(=O)OCc2ccc3c(c2)C(=O)N(C2CCC(=O)NC2=O)C3)c(F)cc1C (stereo not drawn) [Compound 228] | < 100
C[C@@H]1CCCN1c1ccc(NC(=O)OCc2ccc3c(c2)C(=O)N(C2CCC(=O)NC2=O)C3)nc1 (stereo partly drawn) [Compound 192] | < 100

same assay, conditions: read-out: HTRF Class (Cereblon binding, HTRF IC50)

IC50 [nM] | SMILES
< 100 | O=C1CCC(N2Cc3ccc(COC(=O)Nc4cc(C5CC5)ccc4F)cc3C2=O)C(=O)N1 (stereo not drawn) [Compound 207, (2-(2,6-dioxopiperidin-3-yl)-3-oxoisoindolin-5-yl)methyl (5-cyclopropyl-2-fluorophenyl) carbamate]
< 100 | Cc1cc(F)c(NC(=O)OCc2ccc3c(c2)C(=O)N(C2CCC(=O)NC2=O)C3)cc1F (stereo not drawn) [Compound 213, (2-(2,6-dioxopiperidin-3-yl)-3-oxoisoindolin-5-yl)methyl (2,5-difluoro-4-methylphenyl)carbamate]
< 100 | CC(C)Oc1ccc(F)c(NC(=O)OCc2ccc3c(c2)C(=O)N(C2CCC(=O)NC2=O)C3)c1 (stereo not drawn) [Compound 221, (2-(2,6-dioxopiperidin-3-yl)-3-oxoisoindolin-5-yl)methyl (2-fluoro-5-isopropoxyphenyl)carbamate]
100 to 1000 | CC(C)(C)[C@H]1C[C@@H](NC(=O)OCc2ccc3c(c2)C(=O)N(C2CCC(=O)NC2=O)C3)C1 (stereo partly drawn) [Compound 184, cis-(2-(2,6-dioxopiperidin-3-yl)-3-oxoisoindolin-5-yl)methyl ((1s,3s)-3-(tert-butyl)cyclobutyl)carbamate]
100 to 1000 | CC(C)(O)c1ccc(NC(=O)OCc2ccc3c(c2)C(=O)N(C2CCC(=O)NC2=O)C3)cc1 (stereo not drawn) [Compound 195, (2-(2,6-dioxopiperidin-3-yl)-3-oxoisoindolin-5-yl)methyl (4-(2-hydroxypropan-2-yl)phenyl)carbamate]
< 100 | Cc1cc(F)c(NC(=O)OCc2ccc3c(c2)C(=O)N(C2CCC(=O)NC2=O)C3)cc1OC(C)C (stereo not drawn) [Compound 230, (2-(2,6-dioxopiperidin-3-yl)-3-oxoisoindolin-5-yl)methyl (2-fluoro-5-isopropoxy-4-methylphenyl)carbamate]
< 100 | Cc1cc(F)c(NC(=O)OCc2ccc3c(c2)C(=O)N(C2CCC(=O)NC2=O)C3)c(F)c1Cl (stereo not drawn) [Compound 211, (2-(2,6-dioxopiperidin-3-yl)-3-oxoisoindolin-5-yl)methyl (3-chloro-2,6-difluoro-4-methylphenyl)carbamate]
100 to 1000 | O=C1CCC(N2Cc3ccc(COC(=O)Nc4ccc(C5CCC5)cc4F)cc3C2=O)C(=O)N1 (stereo not drawn) [Compound 164, (2-(2,6-dioxopiperidin-3-yl)-3-oxoisoindolin-5-yl)methyl (4-cyclobutyl-2-fluorophenyl)carbamate]
100 to 1000 | O=C1CCC(N2Cc3ccc(COC(=O)NC45CC(CF)(C4)C5)cc3C2=O)C(=O)N1 (stereo not drawn) [Compound 202, (2-(2,6-dioxopiperidin-3-yl)-3-oxoisoindolin-5-yl)methyl (3-(fluoromethyl)bicyclo[1.1.1]pentan-1-yl) carbamate]
< 100 | COc1cc(NC(=O)OCc2ccc3c(c2)C(=O)N(C2CCC(=O)NC2=O)C3)c(F)cc1C (stereo not drawn) [Compound 229, (2-(2,6-dioxopiperidin-3-yl)-3-oxoisoindolin-5-yl)methyl (2-fluoro-5-methoxy-4-methylphenyl)carbamate]
< 100 | O=C1CCC(N2Cc3ccc(COC(=O)NC45CC(C(F)F)(C4)C5)cc3C2=O)C(=O)N1 (stereo not drawn) [Compound 219, (2-(2,6-dioxopiperidin-3-yl)-3-oxoisoindolin-5-yl)methyl (3-(difluoromethyl)bicyclo[1.1.1]pentan-1-yl) carbamate]
100 to 1000 | O=C1CCC(N2Cc3ccc(COC(=O)Nc4cc(F)c(OC(F)F)c(F)c4)cc3C2=O)C(=O)N1 (stereo not drawn) [Compound 206, (2-(2,6-dioxopiperidin-3-yl)-3-oxoisoindolin-5-yl) methyl (4-(difluoromethoxy)-3,5-difluorophenyl)carbamate]
100 to 1000 | O=C1CCC(N2Cc3ccc(COC(=O)Nc4ccc(F)c(OC(F)F)c4F)cc3C2=O)C(=O)N1 (stereo not drawn) [Compound 191, (2-(2,6-dioxopiperidin-3-yl)-3-oxoisoindolin-5-yl)methyl (3-(difluoromethoxy)-2,4-difluorophenyl) carbamate]
100 to 1000 | O=C1CCC(N2Cc3ccc(COC(=O)NC45CC(C4)C5)cc3C2=O)C(=O)N1 (stereo not drawn) [Compound 193, (2-(2,6-dioxopiperidin-3-yl)-3-oxoisoindolin-5-yl)methyl bicyclo[1.1.1]pentan-1-ylcarbamate]
100 to 1000 | O=C1CCC(N2Cc3ccc(COC(=O)Nc4ccc(C(O)C(F)(F)F)cc4)cc3C2=O)C(=O)N1 (stereo not drawn) [Compound 209, (2-(2,6-dioxopiperidin-3-yl)-3-oxoisoindolin-5-yl)methyl (4-(2,2,2-trifluoro-1-hydroxyethyl)phenyl) carbamate]
< 100 | O=C1CCC(N2Cc3ccc(COC(=O)NC45CC(c6ccccc6F)(C4)C5)cc3C2=O)C(=O)N1 (stereo not drawn) [Compound 174, (2-(2,6-dioxopiperidin-3-yl)-3-oxoisoindolin-5-yl)methyl (3-(2-fluorophenyl)bicyclo[1.1.1]pentan-1-yl) carbamate]
100 to 1000 | Cc1ccc(NC(=O)OCc2ccc3c(c2)C(=O)N(C2CCC(=O)NC2=O)C3)c(F)c1Cl (stereo not drawn) [Compound 179, (2-(2,6-dioxopiperidin-3-yl)-3-oxoisoindolin-5-yl) methyl (3-chloro-2-fluoro-4-methylphenyl)carbamate]
100 to 1000 | Cc1cc(F)c(NC(=O)OCc2ccc3c(c2)C(=O)N(C2CCC(=O)NC2=O)C3)cc1OC(F)F (stereo not drawn) [Compound 201, (2-(2,6-dioxopiperidin-3-yl)-3-oxoisoindolin-5-yl) methyl (5-(difluoromethoxy)-2-fluoro-4-methylphenyl)carbamate]
100 to 1000 | Cc1cc(NC(=O)OCc2ccc3c(c2)C(=O)N(C2CCC(=O)NC2=O)C3)ncc1N1CCCC1 (stereo not drawn) [Compound 194, (2-(2,6-dioxopiperidin-3-yl)-3-oxoisoindolin-5-yl)methyl (4-methyl-5-(pyrrolidin-1-yl)pyridin-2-yl) carbamate]
< 100 | CCOc1ccc(F)c(NC(=O)OCc2ccc3c(c2)C(=O)N(C2CCC(=O)NC2=O)C3)c1 (stereo not drawn) [Compound 223, (2-(2,6-dioxopiperidin-3-yl)-3-oxoisoindolin-5-yl)methyl (5-ethoxy-2-fluorophenyl)carbamate]
100 to 1000 | Cc1cc(F)c(NC(=O)OCc2ccc3c(c2)C(=O)N(C2CCC(=O)NC2=O)C3)cc1OC(F)(F)F (stereo not drawn) [Compound 204, (2-(2,6-dioxopiperidin-3-yl)-3-oxoisoindolin-5-yl) methyl (2-fluoro-4-methyl-5-(trifluoromethoxy)phenyl)carbamate]
100 to 1000 | Cc1cc(F)c(NC(=O)OCc2ccc3c(c2)C(=O)N(C2CCC(=O)NC2=O)C3)cc1C (stereo not drawn) [Compound 208, (2-(2,6-dioxopiperidin-3-yl)-3-oxoisoindolin-5-yl)methyl (2-fluoro-4,5-dimethylphenyl)carbamate]
100 to 1000 | CCc1cccc(NC(=O)OCc2ccc3c(c2)C(=O)N(C2CCC(=O)NC2=O)C3)c1 (stereo not drawn) [Compound 220, (2-(2,6-dioxopiperidin-3-yl)-3-oxoisoindolin-5-yl)methyl (3-ethylphenyl)carbamate]
< 100 | CCCOc1cc(NC(=O)OCc2ccc3c(c2)C(=O)N(C2CCC(=O)NC2=O)C3)c(F)cc1C (stereo not drawn) [Compound 231, (2-(2,6-dioxopiperidin-3-yl)-3-oxoisoindolin-5-yl)methyl (2-fluoro-4-methyl-5-propoxyphenyl)carbamate]
< 100 | Cc1cc(F)c(NC(=O)OCc2ccc3c(c2)C(=O)N(C2CCC(=O)NC2=O)C3)cc1Br (stereo not drawn) [Compound 197, (2-(2,6-dioxopiperidin-3-yl)-3-oxoisoindolin-5-yl)methyl (5-bromo-2-fluoro-4-methylphenyl)carbamate]
100 to 1000 | CC(C)(O)c1ccc(NC(=O)OCc2ccc3c(c2)C(=O)N(C2CCC(=O)NC2=O)C3)cn1 (stereo not drawn) [Compound 199, (2-(2,6-dioxopiperidin-3-yl)-3-oxoisoindolin-5-yl)methyl (6-(2-hydroxypropan-2-yl)pyridin-3-yl)carbamate]

SMILES | IC50 [nM]
CC(C)(C)Oc1ccc(F)c(NC(=O)OCc2ccc3c(c2)C(=O)N(C2CCC(=O)NC2=O)C3)c1 (stereo not drawn) [Compound 222, (2-(2,6-dioxopiperidin-3-yl)-3-oxoisoindolin-5-yl)methyl (5-(tert-butoxy)-2-fluorophenyl)carbamate] | 100 to 1000
